In publication PMC3885398, “Evaluation of the Antitumor Effects of BPR1J-340, a Potent and Selective FLT3 Inhibitor, Alone or in Combination with an HDAC Inhibitor, Vorinostat, in AML Cancer” (PLoS ONE, 2014):
Several values for one entry are separate records, joined by “and”; a condition that tells them apart may be missing. Identical values can stand only once.

Columns and labels:
KDR (VEGFR2) = KDR (VEGFR2) (Homo sapiens, UniProt P35968); assay: VEGFR2 Kinase-Glo kinase assay; assay type: biochemical; design: VEGFR2 (residues V789-V1356); made in house
Method: The FLT3 inhibitors, BPR1J-340 and AC220, were synthesized by our laboratory. The histone deacetylase inhibitor vorinostat (SAHA) was purchased from SelleckBio (Houston, TX, USA). All inhibitors were dissolved in dimethylsulfoxide (DMSO) at a stock concentration of 10 mM. The anti-FLT3 (sc-480, Santa Cruz Biotechnology, Santa Cruz, CA, USA), anti-pFLT3-Tyr591 (#3461, Cell Signaling Technology, Beverly, MA, USA) anti-STAT5 (#9363, Cell Signaling Technology), anti-pSTAT5–Tyr694 (#9351, Cell Signaling Technology), anti-cleaved poly ADP-ribose polymerase (PARP) (#9542, Cell Signaling Technology), anti-Mcl-1 (#4572, Cell Signaling Technology), anti-caspase 3 (#9662, Cell Signaling Technology) and anti-β-actin (Gtx110546, GeneTex, Irvine, CA, USA) antibodies were purchased for Western blotting analysis. The preparation of recombinant proteins, FLT3 (residues Y567-S993), VEGFR1 (residues R781-I1338) and VEGFR2 (residues V789-V1356), for biochemical kinase assay was described previously. The VEGFR3 (residues M800-Y1363) proteins were purchased from Upstate (Billerica, MA, USA).
The FLT3 and VEGFR1/2 Kinase-Glo kinase assays were performed as reported by our earlier study. […] The kinase inhibition profiling and inhibitory activity of FLT3-D835Y, CSF1R, and TRKA were determined by Invitrogen SelectScreen® kinase profiling service (Carlsbad, California, USA).

FLT3 D835Y = molecular target: T1, FLT3 D835Y (Homo sapiens, UniProt P36888, D835Y); assay: FLT3 phosphorylation in transfected HEK293T cells, Western blot; assay type: cell-based; design: expressed in transfected cells; host or cells: HEK293T; conditions: HEK293T cells expressing FLT3-D835Y, 1 hr, FLT3 ligand 50 ng/mL 5 min
T1 sequence (P36888 27-993 D835Y): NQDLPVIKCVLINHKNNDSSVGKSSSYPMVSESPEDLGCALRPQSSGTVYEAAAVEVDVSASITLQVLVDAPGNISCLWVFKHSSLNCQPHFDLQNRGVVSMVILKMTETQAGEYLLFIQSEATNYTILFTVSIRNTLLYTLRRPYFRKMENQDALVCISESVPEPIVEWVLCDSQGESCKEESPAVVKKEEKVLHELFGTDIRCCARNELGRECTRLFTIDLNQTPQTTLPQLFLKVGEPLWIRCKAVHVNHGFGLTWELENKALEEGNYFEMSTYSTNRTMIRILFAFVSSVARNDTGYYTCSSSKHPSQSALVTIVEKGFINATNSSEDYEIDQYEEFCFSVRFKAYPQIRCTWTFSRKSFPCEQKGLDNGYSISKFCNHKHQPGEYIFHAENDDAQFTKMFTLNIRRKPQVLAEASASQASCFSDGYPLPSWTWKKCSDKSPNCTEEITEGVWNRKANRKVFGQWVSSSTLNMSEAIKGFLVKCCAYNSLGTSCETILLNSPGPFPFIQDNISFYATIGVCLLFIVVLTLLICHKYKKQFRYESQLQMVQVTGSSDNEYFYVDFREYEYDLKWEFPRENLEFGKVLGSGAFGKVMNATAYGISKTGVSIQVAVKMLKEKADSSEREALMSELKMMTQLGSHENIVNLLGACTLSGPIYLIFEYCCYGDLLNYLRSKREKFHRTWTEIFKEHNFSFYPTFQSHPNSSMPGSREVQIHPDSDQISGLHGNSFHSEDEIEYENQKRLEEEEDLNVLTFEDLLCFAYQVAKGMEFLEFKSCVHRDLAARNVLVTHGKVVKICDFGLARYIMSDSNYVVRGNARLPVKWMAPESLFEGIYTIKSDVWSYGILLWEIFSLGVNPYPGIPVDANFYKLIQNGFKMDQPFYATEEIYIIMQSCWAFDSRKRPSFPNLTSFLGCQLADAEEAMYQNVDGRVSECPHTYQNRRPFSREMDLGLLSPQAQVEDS
Method: Cells were lysed in lysis buffer (50 mM Tris, pH 8.0, 150 mM NaCl, 1% Triton X-100, 0.5% sodium deoxycholate, 0.1% SDS, 1 mM sodium orthovanadate, 1 mM PMSF, and 1 mM DTT). Protein lysates were resolved by SDS-PAGE and transferred onto a polyvinylidene difluoride (PVDF) membrane (Millipore, Bedford, MA, USA). The membranes were immunoblotted with appropriate antibodies and detected using the SuperSignal reagent (Pierce, Rockford, IL, USA) followed by exposure to X-ray film.
To address whether BPR1J-340 was able to inhibit the FLT3 signaling pathway in FLT3-driven cells, MV4;11 cells were treated with different concentrations of BPR1J-340 for 1 hour, and the phosphorylation status of FLT3 and STAT5 (Signal Transducer and Activator of Transcription 5), a critical down-stream modulator that plays a major role in FLT3-ITD signal transduction for cell expansion and survival, was examined by Western blot analysis. […] To investigate the difference in sensitivity between FLT3-WT and the activating mutants FLT3-ITD and FLT3-D835Y to BPR1J-340, HEK293T cells engineered to express FLT3-WT or mutants FLT3 (FLT3-ITD, FLT3-D835Y) were analyzed. […]
Figure 2 BPR1J-340 inhibits FLT3-dependent signaling. […] The phosphorylation status of FLT3 and STAT5 were evaluated by Western blot analysis. […] The FLT3 phosphorylation status in the transfected cells was evaluated by Western blot analysis.

Sequence of KDR (VEGFR2) (P35968 789-1356): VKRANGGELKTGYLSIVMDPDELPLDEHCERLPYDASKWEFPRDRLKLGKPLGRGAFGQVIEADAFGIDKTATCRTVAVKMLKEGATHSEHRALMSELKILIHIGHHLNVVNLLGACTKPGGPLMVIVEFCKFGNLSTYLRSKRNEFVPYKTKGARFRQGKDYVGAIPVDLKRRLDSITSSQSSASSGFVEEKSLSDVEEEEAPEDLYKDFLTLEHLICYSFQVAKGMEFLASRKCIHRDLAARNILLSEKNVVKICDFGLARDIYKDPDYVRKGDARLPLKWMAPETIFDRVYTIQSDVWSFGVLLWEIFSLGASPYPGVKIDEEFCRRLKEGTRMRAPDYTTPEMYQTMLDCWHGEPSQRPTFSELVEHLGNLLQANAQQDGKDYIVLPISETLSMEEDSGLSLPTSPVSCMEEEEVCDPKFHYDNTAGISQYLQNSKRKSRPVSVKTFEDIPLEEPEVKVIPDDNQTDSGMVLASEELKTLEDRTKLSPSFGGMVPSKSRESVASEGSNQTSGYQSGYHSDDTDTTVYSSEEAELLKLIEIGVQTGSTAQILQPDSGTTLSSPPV

For `CCc1cc(NC(=O)NCc2ccc(-c3cc(NC(=O)c4ccc(CN5CCN(C)CC5)cc4)[nH]n3)cc2)no1` [BPR1J-340, N1-(3-4-[([(5-ethyl-3-isoxazolyl)amino]carbonylamino)methyl]phenyl-1H-5-pyrazolyl)-4-[(4-methylpiperazino)methyl]benzamide], the IC50 (KDR (VEGFR2)) was 28 ± 9 nM and the IC50 (FLT3 D835Y) was 10 to 100 nM and ~100 nM.
